Laboratory results published in paper PMC12808100, “The non-catalytic DNA polymerase ε subunit is an NPF motif recognition protein” (Nature Communications, 2025).

What was measured:
[1] = biological target: His6-avi-MBP-tagged POLE2; assay: Single-point nHU-MS with recombinant His6-avi-MBP-POLE2 bait, Jurkat extract; type: binding, human; details: significant apparent affinity of endogenous prey protein for POLE2 bait; single-point nHU-MS; Figure S11
Text: So far, our study only focused on a few hand-picked NPF motifs and studied them as short synthetic peptides. However, many other proteins may be present in the proteome that could bind to POLE2 and their putative NPF motifs are embedded in their natural structures that can greatly affect their binding properties. To investigate interactions between POLE2 and intact, full length proteins proteome-wide, we used nHU-MS experiments with recombinant His6-avi-MBP-tagged POLE2 as bait and purified His6-avi-MBP as a control. Even though we are aware that this recombinant POLE2 may bind to NPF motifs with a somewhat altered affinity, we assumed that this would affect all NPF motif-mediated interactions equally, allowing an unbiased affinity ranking of all identified partners. Single point nHU measurements were performed at 26 μM POLE2 concentration and the recovered supernatant was measured by label free proteomic MS measurements (Fig. 3A, Supplementary Figs. 8A, 9, Supplementary Data 1).
Single-point nHU experiments with protein baits were carried out nearly identically with two key modifications. First, the resin saturation step was carried out by mixing 50 μl streptavidin resin with 0.5−1 ml 50 μM biotinylated protein solution and the mixture was incubated for 1.5 h at 4 °C with constant agitation. Second, instead of using estimated bait concentrations, we measured it experimentally. An extra aliquot of resin stock was prepared alongside the nHU samples that were identically processed that were used to eluate the immobilized proteins under harsh conditions, in order to experimentally quantify the Cbait by using densitometry of Coomassie stained SDS-PAGE that included a protein calibration series. For this, 50 μl bait-saturated resin aliquots were mixed with 200 μl 4x Laemmli Sample Buffer (120 mM Tris-HCl pH 7, 8% SDS, 100 mM DTT, 32% glycerol, 0.004% bromphenol blue, 1% β-mercaptoethanol), instead of cell extract. After 15 min incubation at 95 °C, these samples were analyzed by SDS-PAGE using protein calibration standard, made from recombinant MBP. Densitometry was carried out after Coomassie staining on raw Tif images by using Fiji ImageJ 1.53c and experimental bait concentration were determined by adjusting for molecular weight differences between MBP and MBP-POLE2 constructs.
Samples were digested overnight at 37 °C.

[2] = biological target: T1, UBE2N (Homo sapiens, UniProt P61088); assay: nHU-MS peptide bait, prey UBE2N; details: FigureS2 Volcano; prey UBE2N
T1 sequence (P61088 1-152): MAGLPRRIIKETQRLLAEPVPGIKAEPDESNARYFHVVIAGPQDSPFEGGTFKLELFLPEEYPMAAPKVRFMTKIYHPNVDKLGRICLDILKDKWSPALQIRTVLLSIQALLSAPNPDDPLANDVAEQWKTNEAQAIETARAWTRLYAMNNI

[3] = test system: endogenous proteins of Jurkat extract; assay: Single-point nHU-MS with biotinylated NPF motif peptide baits, proteome-wide; type: binding, human; details: FigureS2 Volcano; prey WASHC3
Text: To identify the partners of NPF motifs, we used the native holdup (nHU) assay that was recently developed by our team (Fig. 1B). The holdup approach has been extensively used to determine equilibrium dissociation constants of transient interactions mediated by PDZ and SH3 domains, 14-3-3, and human papilloma virus E6 proteins, and even nucleic acid-protein interactions[7],[30]–[35]. In the nHU experiments, a purified bait molecule, or a control compound, is immobilized on a resin at high concentration (typically 10 μM, or higher) and these resin stocks are subsequently mixed with dilute cell extracts. […] This liquid phase contains the unbound prey molecules at near binding equilibrium that can be quantified using selective and quantitative analytical approaches, such as mass spectrometry. Therefore, proteins that interact with the bait molecule will appear to be depleted in the solvent phase and by measuring its relative concentration compared to the control nHU experiment, the degree of binding (θ) can be determined that can be converted to apparent steady-state dissociation constants, according to:1 θ=1−Ifree/Itot=Cbait/Cbait+Kapp where Itot and Ifree are the measured total and bait-depleted equilibrium mass spectrometry total ion intensities of prey proteins, Cbait is the bait molecule concentration and Kapp is the apparent dissociation constant. […]

[4] = biological target: T2, EHD4 (Homo sapiens, UniProt Q9H223); assay: nHU-MS peptide bait, prey EHD4; details: FigureS2 Volcano; prey EHD4
T2 sequence (Q9H223 1-541): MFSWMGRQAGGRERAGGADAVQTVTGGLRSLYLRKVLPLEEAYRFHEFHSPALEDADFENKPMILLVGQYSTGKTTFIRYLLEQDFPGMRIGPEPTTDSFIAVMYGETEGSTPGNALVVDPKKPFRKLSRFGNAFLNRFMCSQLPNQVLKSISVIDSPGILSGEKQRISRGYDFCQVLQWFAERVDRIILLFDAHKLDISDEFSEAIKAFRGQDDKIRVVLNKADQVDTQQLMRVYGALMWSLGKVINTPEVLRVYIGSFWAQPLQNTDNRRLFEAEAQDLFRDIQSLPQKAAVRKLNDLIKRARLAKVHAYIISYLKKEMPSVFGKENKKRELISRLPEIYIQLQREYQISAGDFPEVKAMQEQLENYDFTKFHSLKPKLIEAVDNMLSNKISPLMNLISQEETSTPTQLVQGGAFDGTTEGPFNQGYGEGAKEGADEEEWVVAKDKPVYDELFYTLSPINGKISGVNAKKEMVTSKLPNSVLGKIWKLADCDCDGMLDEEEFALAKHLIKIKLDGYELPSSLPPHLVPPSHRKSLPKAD

[5] = biological target: T3, GYPC (Homo sapiens, UniProt P04921); assay: nHU-MS peptide bait, prey GYPC; details: FigureS2 Volcano; prey GYPC
T3 sequence (P04921 1-128): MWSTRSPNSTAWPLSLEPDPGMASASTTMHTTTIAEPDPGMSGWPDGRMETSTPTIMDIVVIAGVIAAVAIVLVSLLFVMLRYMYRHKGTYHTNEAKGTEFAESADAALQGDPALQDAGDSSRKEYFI

## NSVD [WDHD1]
[1]
  pKapp_sign: 5.025
[2]
  -log10P: 4.615
  log2FC: -0.5674
[3]
  log2FC: -0.6642
[4]
  -log10P: 4.524
  log2FC: -0.6115
[5]
  -log10P: 4.7052
  log2FC: -0.6216
